Laboratory results reported in ChEMBL document CHEMBL1201862, “PubChem BioAssay data set” (2004).
Calls of active or inactive are those of the source.

Legend:
[1] = test system: Streptococcus sp. 'group A'; assay: growth inhibition of control SK(-) GAS strain, dose response, counter-screen for streptokinase expression inhibitor project, luminescence, kanamycin, BacTiterGlo, confirmation (AID 1900); format: functional, organism-based
Streptococcus = assay: Group A Streptococcus viability loss, dose response, counter-screen for streptokinase expression inhibitor project, luminescence, BacTiterGlo (AID 1915); format: functional, organism-based;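 note: potency for reduction of bacterial viability or growth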
[2] = target: Disintegrin and metalloproteinase domain-containing protein 17 (Homo sapiens, UniProt P78536); assay: ADAM17 protease inhibitors, dose response, counter-screen for ADAM10 exosite inhibitor project, biochemical, quenched FRET substrate (AID 743253)
Streptokinase A = target: T1, Streptokinase A (Streptococcus pyogenes serotype M1, UniProt P10520); assay: S. pyogenes streptokinase expression inhibitors, potency, dose response, plasminogen activation absorbance, OD405 (AID 1914); format: functional, Streptococcus pyogenes M1 GAS;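 note: secreted streptokinase activity via plasminogen activation per viability signal from cell pellet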
T1 sequence (P10520 whole entry): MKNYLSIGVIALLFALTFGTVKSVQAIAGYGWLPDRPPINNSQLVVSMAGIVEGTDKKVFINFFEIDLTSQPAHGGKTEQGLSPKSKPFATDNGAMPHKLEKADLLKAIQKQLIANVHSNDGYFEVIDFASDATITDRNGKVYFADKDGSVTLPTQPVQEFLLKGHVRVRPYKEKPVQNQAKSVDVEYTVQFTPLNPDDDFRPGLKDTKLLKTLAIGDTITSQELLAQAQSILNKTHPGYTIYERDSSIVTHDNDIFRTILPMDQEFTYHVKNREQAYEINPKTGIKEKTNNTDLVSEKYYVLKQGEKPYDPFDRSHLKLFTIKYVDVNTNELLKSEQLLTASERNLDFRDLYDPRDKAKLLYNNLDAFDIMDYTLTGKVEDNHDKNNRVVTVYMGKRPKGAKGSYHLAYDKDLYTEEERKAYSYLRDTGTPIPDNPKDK

[3] = target: Metabotropic glutamate receptor 5 (Rattus norvegicus, UniProt P31424); assay: Identification of a glycine sulfonamide based non-MPEP site positive allosteric potentiator (PAM) of mGlu5 (calcium_assay).; format: functional
Metabotropic glutamate receptor 5, sequence (P31424 whole entry): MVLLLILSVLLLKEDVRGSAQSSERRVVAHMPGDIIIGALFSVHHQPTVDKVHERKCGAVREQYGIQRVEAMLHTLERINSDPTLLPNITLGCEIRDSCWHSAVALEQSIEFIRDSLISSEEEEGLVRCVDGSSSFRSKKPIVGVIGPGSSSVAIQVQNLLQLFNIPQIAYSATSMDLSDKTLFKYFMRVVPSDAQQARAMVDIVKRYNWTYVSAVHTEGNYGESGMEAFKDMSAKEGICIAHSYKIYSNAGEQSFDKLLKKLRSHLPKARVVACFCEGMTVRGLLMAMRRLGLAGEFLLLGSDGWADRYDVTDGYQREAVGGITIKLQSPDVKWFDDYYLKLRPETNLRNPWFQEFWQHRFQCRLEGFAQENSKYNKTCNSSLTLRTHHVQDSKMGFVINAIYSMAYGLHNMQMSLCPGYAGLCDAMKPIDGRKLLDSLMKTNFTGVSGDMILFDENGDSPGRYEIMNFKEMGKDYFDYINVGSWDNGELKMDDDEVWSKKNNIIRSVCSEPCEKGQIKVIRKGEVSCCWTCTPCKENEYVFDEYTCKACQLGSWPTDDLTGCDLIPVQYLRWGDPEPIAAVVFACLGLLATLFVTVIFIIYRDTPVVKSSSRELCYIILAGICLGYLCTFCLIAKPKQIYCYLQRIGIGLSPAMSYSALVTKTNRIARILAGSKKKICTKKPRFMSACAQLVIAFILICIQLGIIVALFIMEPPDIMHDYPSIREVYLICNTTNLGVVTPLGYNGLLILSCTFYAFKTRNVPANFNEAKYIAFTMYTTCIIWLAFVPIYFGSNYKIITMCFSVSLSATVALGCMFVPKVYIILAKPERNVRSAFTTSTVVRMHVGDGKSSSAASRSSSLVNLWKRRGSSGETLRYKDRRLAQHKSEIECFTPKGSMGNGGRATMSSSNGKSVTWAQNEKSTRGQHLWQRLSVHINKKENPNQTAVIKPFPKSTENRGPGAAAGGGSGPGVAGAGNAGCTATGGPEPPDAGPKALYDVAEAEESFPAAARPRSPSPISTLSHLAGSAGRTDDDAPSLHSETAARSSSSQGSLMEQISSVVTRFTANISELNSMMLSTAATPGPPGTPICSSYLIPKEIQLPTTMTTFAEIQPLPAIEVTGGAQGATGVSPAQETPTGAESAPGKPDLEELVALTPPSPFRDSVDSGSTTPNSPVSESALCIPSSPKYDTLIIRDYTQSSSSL

[4] = target: Potassium channel subfamily K member 9 (Homo sapiens, UniProt Q9NPC2); assay: TASK3 (KCNK9) channel inhibitors, thallium flux, SAR follow-up, selectivity assay for TASK1 inhibitor project, cell-based, FluxOR thallium flux, concentration-response (AID 652211); format: functional;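 note: potency is for inhibitors of the channel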
Potassium channel subfamily K member 9, sequence (Q9NPC2 whole entry): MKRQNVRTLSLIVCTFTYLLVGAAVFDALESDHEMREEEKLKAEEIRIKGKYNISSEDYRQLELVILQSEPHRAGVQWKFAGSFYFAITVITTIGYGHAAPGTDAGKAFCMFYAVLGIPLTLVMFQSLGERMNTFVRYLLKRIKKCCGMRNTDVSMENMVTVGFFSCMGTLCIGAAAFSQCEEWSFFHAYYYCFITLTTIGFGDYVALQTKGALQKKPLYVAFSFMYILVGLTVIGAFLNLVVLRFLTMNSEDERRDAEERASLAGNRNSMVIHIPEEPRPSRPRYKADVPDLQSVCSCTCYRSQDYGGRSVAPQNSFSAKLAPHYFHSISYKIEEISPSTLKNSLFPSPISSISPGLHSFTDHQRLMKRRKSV

[5] = target: Potassium channel subfamily K member 3 (Homo sapiens, UniProt O14649); assay: TASK1 (KCNK3) potassium channel inhibitors, SAR follow-up, CHO cells, FluxOR thallium flux (AID 652212); format: functional
Potassium channel subfamily K member 3, sequence (O14649 whole entry): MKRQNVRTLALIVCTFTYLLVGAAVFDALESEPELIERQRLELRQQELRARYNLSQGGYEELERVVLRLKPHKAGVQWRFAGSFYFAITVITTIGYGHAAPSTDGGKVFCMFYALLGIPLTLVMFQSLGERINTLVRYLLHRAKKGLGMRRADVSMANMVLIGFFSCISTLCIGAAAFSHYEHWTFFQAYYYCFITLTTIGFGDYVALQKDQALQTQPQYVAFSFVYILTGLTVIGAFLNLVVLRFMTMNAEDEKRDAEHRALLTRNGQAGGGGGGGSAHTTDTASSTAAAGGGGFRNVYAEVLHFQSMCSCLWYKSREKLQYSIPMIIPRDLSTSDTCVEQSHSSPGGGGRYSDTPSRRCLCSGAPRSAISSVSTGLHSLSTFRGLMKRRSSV

Cytochrome P450 3A4 = Cytochrome P450 3A4 (Homo sapiens, UniProt P08684); conditions: Potency;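 note: confirmatory qHTS run detecting inhibitors and substrates of CYP3A4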
Cytochrome P450 3A4, sequence (P08684 whole entry): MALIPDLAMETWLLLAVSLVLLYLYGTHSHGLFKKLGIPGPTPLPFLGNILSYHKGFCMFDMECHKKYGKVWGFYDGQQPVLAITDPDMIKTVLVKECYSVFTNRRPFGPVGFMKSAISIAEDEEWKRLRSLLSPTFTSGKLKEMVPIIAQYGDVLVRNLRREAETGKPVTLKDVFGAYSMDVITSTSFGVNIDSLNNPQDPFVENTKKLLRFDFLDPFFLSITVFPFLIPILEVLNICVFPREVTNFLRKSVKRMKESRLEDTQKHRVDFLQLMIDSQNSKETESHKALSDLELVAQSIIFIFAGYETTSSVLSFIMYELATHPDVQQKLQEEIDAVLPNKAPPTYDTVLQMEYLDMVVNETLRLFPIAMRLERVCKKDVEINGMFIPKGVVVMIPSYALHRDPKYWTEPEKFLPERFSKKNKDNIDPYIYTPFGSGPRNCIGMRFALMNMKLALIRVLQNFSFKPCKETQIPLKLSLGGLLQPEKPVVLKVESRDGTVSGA

Cytochrome P450 2C19 = Cytochrome P450 2C19 (Homo sapiens, UniProt P33261); assay: qHTS Assay for Inhibitors and Substrates of Cytochrome P450 2C19. [Related pubchem assays: 410 ]; format: ADME; conditions: read-out: Potency
Cytochrome P450 2C19, sequence (P33261 whole entry): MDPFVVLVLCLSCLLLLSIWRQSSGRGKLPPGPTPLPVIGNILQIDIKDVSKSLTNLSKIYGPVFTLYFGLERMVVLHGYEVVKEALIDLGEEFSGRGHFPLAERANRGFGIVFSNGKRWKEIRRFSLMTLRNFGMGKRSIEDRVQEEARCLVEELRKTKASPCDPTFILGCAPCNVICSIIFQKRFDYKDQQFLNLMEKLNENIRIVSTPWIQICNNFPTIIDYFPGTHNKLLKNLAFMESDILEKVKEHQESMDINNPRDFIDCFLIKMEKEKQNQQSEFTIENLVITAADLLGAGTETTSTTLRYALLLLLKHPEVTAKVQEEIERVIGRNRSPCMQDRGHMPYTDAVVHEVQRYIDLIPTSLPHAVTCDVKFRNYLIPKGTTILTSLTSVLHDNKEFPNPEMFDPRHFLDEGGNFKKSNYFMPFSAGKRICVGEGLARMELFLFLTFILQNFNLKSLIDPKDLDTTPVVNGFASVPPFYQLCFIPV

[6] = CEM21 cell cytotoxicity, dose response, cytotoxicity control, plate reader, dry powder (AID 687026); format: functional, cell-based
[7] = target: Endoplasmic reticulum aminopeptidase 1 (Homo sapiens, UniProt Q9NZ08); assay: ERAP1 aminopeptidase inhibitors, dose response, biochemical, cherry-pick, set 2, plate reader (AID 743314)
Endoplasmic reticulum aminopeptidase 1, sequence (Q9NZ08 whole entry): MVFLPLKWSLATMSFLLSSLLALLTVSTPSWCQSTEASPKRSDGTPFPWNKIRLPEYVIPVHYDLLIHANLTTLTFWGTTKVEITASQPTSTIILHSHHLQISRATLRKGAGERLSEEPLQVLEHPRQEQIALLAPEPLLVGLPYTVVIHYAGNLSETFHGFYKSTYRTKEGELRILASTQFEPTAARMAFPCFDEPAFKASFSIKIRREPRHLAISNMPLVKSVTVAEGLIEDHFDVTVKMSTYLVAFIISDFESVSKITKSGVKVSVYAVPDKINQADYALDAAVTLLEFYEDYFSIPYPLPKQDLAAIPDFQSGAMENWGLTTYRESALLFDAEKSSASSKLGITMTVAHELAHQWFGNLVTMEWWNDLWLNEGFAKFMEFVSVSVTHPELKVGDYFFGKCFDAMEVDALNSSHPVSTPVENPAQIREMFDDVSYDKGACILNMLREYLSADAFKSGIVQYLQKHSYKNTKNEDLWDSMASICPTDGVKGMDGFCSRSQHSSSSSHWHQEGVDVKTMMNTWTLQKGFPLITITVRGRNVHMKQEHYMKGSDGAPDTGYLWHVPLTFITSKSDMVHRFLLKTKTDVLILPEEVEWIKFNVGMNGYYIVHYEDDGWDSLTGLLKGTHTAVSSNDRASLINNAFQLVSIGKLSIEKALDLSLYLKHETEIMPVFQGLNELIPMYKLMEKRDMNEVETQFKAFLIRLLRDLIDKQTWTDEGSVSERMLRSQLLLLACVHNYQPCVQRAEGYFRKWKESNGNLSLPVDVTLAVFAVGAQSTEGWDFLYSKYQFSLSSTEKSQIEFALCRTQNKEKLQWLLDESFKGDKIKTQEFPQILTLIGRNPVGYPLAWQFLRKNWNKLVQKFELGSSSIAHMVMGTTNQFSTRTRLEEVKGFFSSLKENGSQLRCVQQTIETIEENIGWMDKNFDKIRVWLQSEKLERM

[8] = target: T2, High affinity choline transporter 1 (Homo sapiens, UniProt Q9GZV3); assay: CHT inhibitors, dose response, cell-based, 5-point CRC, membrane potential dye (AID 504840); format: functional
T2 sequence (Q9GZV3 whole entry): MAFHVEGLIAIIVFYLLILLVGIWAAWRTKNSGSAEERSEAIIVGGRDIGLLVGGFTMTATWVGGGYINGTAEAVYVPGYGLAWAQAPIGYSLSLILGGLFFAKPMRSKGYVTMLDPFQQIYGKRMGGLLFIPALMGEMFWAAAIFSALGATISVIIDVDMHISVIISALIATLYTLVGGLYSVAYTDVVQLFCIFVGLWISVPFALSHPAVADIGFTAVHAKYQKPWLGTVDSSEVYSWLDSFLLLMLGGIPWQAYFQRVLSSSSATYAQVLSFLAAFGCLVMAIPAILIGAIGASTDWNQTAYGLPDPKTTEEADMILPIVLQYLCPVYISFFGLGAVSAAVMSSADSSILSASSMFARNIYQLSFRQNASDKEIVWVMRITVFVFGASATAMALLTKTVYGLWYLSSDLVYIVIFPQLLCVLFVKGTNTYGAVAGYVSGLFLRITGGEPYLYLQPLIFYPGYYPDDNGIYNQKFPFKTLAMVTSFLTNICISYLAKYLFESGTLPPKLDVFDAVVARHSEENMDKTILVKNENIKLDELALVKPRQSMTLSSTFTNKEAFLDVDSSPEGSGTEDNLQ

Large T antigen = Large T antigen (Simian virus 40, UniProt P03070); format: functional, Betapolyomavirus macacae;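 note: Confirmatory-stage PubChem screen for compounds that inhibit SV40 T antigen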
Large T antigen, sequence (P03070 whole entry): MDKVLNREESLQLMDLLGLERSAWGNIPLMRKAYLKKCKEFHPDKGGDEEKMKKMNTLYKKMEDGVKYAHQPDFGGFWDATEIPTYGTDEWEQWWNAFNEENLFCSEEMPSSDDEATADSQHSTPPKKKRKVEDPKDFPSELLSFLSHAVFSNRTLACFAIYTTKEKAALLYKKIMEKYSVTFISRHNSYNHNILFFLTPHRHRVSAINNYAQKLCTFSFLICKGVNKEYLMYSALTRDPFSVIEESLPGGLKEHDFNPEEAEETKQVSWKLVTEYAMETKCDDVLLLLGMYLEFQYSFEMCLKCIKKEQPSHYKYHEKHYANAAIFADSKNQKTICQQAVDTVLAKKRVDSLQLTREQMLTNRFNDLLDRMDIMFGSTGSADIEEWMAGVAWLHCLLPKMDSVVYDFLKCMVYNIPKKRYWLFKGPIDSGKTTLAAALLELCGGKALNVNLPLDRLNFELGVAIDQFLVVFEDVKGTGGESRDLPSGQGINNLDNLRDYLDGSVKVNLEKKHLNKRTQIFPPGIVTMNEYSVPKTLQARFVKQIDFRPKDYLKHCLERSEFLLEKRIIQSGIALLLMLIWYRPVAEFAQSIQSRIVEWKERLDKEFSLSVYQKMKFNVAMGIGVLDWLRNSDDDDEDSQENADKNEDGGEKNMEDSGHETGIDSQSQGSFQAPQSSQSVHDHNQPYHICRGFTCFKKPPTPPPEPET

## CCCN(CC(=O)Nc1cc(Cl)cc(Cl)c1)CC(=O)Nc1ccc(F)c(F)c1F
[1]
  EC50: 1.77 µM (active)
Streptococcus
  EC50: 10.4 µM (active)
[2]
  IC50: > 69.5 µM (inactive)
Streptokinase A
  EC50: 1.48 µM (active)

## CC(C(=O)Nc1ccc(F)nc1)N(c1ccccc1Cl)S(C)(=O)=O (stereo not drawn)
[3]
  EC50: 10 µM (inconclusive)

## COc1ccccc1C(=O)Nc1cccc(NC(=O)c2cccc3ccccc23)c1
[4]
  IC50: 0.24 µM (active)
[5]
  IC50: 0.003 µM (active)

## N=C1Sc2ccccc2C2=NCCCN12
Cytochrome P450 3A4
  AC50: 25.1 µM (inconclusive)
Cytochrome P450 2C19
  AC50: 6.31 µM (inconclusive)
[6]
  AC50: > 70 µM (inactive)

## CSC1=NS(=O)(=O)c2c(C)nn(C)c2S1
[7]
  AC50: 18.7 µM (active)
[8]
  IC50: 10.7 µM (active)
Large T antigen
  IC50: 32.8 µM (active)
